One experiment has as its target T1, CK2 holoenzyme (Homo sapiens, UniProt P68400).
T1 construct: made in house
In words: CK2 kinase assay with CK2β-independent peptide substrate. The format is biochemical. The conditions noted are these: CK2 holoenzyme 100 nM, 15 min at 4 °C; at high TAT-Pc 13 concentrations. As to the method: Figure 4 Inhibitory activity of a TAT-Pc analogue in vitro. (A) CK2 holoenzyme (100 nM) was incubated in the presence of increasing concentrations of TAT-Pc 13 for 15 min at 4 °C. CK2 activity was then determined with CK2β-dependent or independent peptide substrates; (B) [^35S]-labeled CK2α was incubated with biotinylated MBP-CK2β immobilized on streptavidin coated plates (preformed complex) in the absence (1) or presence (2) of TAT-Pc 13. Alternatively, [^35S]-labeled CK2α was incubated with TAT-Pc 13 (3) or random TAT-Pc 13 (4) and then with immobilized biotinylated MBP-CK2β. After washing, the amount of [^35S]-labeled CK2α remaining in the complex was determined by radioactivity counting. Representative data shown from two independent experiments. Results are presented as mean ± s.d. of triplicates.
CK2 kinase assays were performed in a phosphorylation buffer containing recombinant CK2α (36 ng) or recombinant CK2 holoenzyme (50 ng) and a mixture containing 10 mM MgCl2 and 1 μCi of [γ-32P]ATP and 0.15 M NaCl in the presence of 0.2 mM of the CK2β-independent substrate […] [28] or the CK2β-dependent substrate […] [18]. […] Kinase reactions were terminated by the addition of 60 μL of 4% trichloroacetic acid and sample adsorption on phosphocellulose P81 paper, which were washed in 0.5% phosphoric acid and counted in a scintillation counter.

The subject of a further experiment is MDA MB-231. In words: Cell death of cancerous cell line, PrestoBlue assay. Particulars: 6 h, increasing concentrations (Figure S1). It counts as cell-based. As to the method: (§1) Alternatively, cell viability was measured using the PrestoBlue® assay (Invitrogen, Carlsbad, CA, USA). The microtiter plates containing the treated cells were incubated for 1 h with 10 µL PrestoBlue. The fluorescence was recorded at 580 nm using a FluoStar Optima plate reader (BMG LabTech, Ortenberg, Germany).
(§2) Supplementary Materials: In Search of Small
(§3) Molecule Inhibitors Targeting the Flexible CK2
(§4) Benoit Bestgen, Zakia Belaid-Choucair, Thierry Lomberget, Marc Le Borgne, Odile Filhol […]
(§5) Figure S1. Cellular effects of TAT-Pc 13. (A) MDA MB-231 cells (⦁-⦁) or HeLa cells (○-○) were incubated for 6 h with increasing concentrations of TAT-Pc 13 and cell death was measured using the PrestoBlue assay as described in Material and Methods; (B) 786-O cells were treated for 12 h with increasing concentrations of CX-4945, lysed and analyzed by Western blot; (C) 786-O cells were treated with 20 µM TAT-Pc 13 or 5 µM CX-4945 and immunostained for p21 expression.
(§6) Figure 2. Inhibition of TAT-Pc-induced cell death. MCF-10A cells were pre-treated in the absence (CTRL) or presence of 20 µM z-VAD or 30 µM Necrostatin-1 or 20 µM z-VAD + 30 µM Necrostatin-1 for 5 h and then incubated for 4 h with 25 µM random TAT-Pc 13 or TAT-Pc 13 and cell viability was evaluated as in Figure 8A. […]

Another experiment deals with HeLa. The description is as above. The format is cell-based. The conditions noted are these: 6 h, increasing concentrations (Figure S1). As to the method: as §1, §2, §3, §4, §5, §6
Experiment [1] concerns p21 Thr145 phosphorylation, survivin expression, AKT activation. In words: Western blot of intracellular events (AKT, phospho-p21 Thr145, survivin). The format is cell-based. The method, then:
This was confirmed using the LIVE&DEAD^TM cell viability assay that provides a visual readout of cell integrity (Figure 8A lower panel). This cellular effect was also analyzed after treatment of WT or CK2β-depleted MCF-10A cells with increasing concentrations of TAT-Pc 13. TAT-Pc 13 caused a cell death in both cell types, which was already detectable at a concentration of 25 µM and became massive at 50–60 µM (Figure 8B). […] In order to investigate the intracellular events induced by TAT-Pc 13, MCF-10A cells were incubated with increasing concentrations of TAT-Pc 13 and analyzed by Western blot.
Figure 8 Cellular effects of TAT-Pc 13. (A) MCF-10A cells were incubated with 25 µM of TAT-Pc 13 for 3 h and imaged with phase microscopy (upper panel) or with increasing concentrations of TAT-Pc 13 for 2 h and cell viability was evaluated using the LIVE&DEAD™ assay. Live cells fluoresce bright green (530 nm), whereas dead cells fluoresce red-orange (645 nm) (lower panel, scale bare: 100 µm); (B) WT (○-○) or CK2β-depleted (●-●) MCF-10A cells were incubated for 4 h with increasing concentrations of TAT-Pc 13 and cell death was evaluated using the LIVE&DEAD™ assay recording fluorescence at 645 nm. Representative data shown from two independent experiments in duplicate; (C) MCF-10A cells were pre-treated in the absence or presence of 20 µM z-VAD for 5 h and then incubated for 4 h with 25 µM random TAT-Pc 13 or TAT-Pc 13 and cell viability was evaluated as in (A) (scale bare: 100 µm); and (D) intracellular events induced by increasing concentrations of TAT-Pc 13. After 12 h of treatment, 786-O cells were lysed and analyzed by Western blot. TEXT PRINTED IN THE PICTURE: (B) TAT-Pc 13: TAT-Pc 13 (μM): 48; TAT-Pc 13 (μM): 60 DOUBTS OF THE COPYIST ABOUT THIS PICTURE: Panel B: 48 and 60 are printed in red at the x axis, where dashed lines drop from the two curves at about 50 on the Cell death (%) axis. No measure name (e.g. IC50) is printed with them. […]
On the technique in general: Immunoblotting shows a protein as a band on a membrane.

Where a SMILES comes first, the peptide text is derived from it. Bridges are numbered along the chain shown (N, C = ends).

T1 sequence (P68400 whole entry): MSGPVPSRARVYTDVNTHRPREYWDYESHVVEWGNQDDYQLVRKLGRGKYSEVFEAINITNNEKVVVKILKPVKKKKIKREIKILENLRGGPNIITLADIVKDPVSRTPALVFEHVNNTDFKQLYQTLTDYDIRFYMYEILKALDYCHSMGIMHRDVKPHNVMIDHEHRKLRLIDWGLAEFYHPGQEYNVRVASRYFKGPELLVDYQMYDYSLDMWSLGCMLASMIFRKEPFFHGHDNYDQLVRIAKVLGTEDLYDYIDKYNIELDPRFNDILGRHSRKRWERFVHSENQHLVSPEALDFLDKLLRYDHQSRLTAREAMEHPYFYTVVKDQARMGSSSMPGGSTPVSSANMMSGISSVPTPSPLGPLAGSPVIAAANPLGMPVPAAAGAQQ

For the compound `CC[C@H](C)[C@@H]1NC(=O)[C@H](CCCCN)NC(=O)[C@H](Cc2ccccc2)NC(=O)CNC(=O)[C@H](Cc2ccc(O)cc2)NC(=O)[C@H](CC(C)C)NC(=O)[C@H](CCCNC(=N)N)NC(=O)CNC(=O)CNC(=O)[C@@H](NC(=O)[C@H](CCC(N)=O)NC(=O)[C@@H]2CCCN2C(=O)[C@@H]2CCCN2C(=O)[C@H](CCCNC(=N)N)NC(=O)[C@H](CCCNC(=N)N)NC(=O)[C@H](CCCNC(=N)N)NC(=O)[C@H](CCC(N)=O)NC(=O)[C@H](CCCNC(=N)N)NC(=O)[C@H](CCCNC(=N)N)NC(=O)[C@H](CCCCN)NC(=O)[C@H](CCCCN)NC(=O)[C@H](CCCNC(=N)N)NC(=O)CN)CCCCNC(=O)CNC(=O)CNC(=O)[C@H](Cc2c[nH]cn2)NC1=O` [TAT-Pc 13] (H-GRKKRRQRRRPPQKGGRLYGFKIHGG; lactam 14-C; N-terminus assumed), the CK2β-independent peptide phosphorylation entry on CK2 holoenzyme is on record as “significantly stimulated”. The “induction of cell death” value in the experiment on MDA MB-231 and in the experiment with HeLa was “induce cell death” throughout. For the same compound, the concentration for a half-maximal effect (EC50) in experiment [1] (12 h treatment, text says MCF-10A cells, Figure 8D legend says 786-O cells, read-out: EC50, phosphorylation of p21 on Thr145 and decrease of survivin expression) amounted to 15 µM. In experiment [1] (increasing concentrations, 12 h), the AKT activation entry was “no sign of AKT activation”.

As a reminder, the EC50 is the concentration needed to bring the measured effect to its halfway point.

The record behind these values is paper PMC5374420, “In Search of Small Molecule Inhibitors Targeting the Flexible CK2 Subunit Interface” (Pharmaceuticals, 2017).
